The source made the active and inactive calls. The rule behind the calls is not given here.
Legend:
HCT-116 = assay: Induction of apoptosis in human HCT-116 cells cocultured with PMA-differentiated THP-1 cells assessed as late apoptotic cells at 10 uM measured after 24 hrs using annexin V-FITC/PI staining based flow cytometry; type: functional
[1] = Cytotoxicity against HEK-Blue TLR2 cells incubated for 24 hrs by CCK-8 assay; type: toxicity, cell-based, HEK-Blue hTLR2; settings: human
Toll-like receptor 2 [2] = molecular target: T1, Toll-like receptor 2 (Homo sapiens, UniProt O60603); assay: Binding affinity to recombinant human TLR2 expressed in H5 cells by surface plasmon resonance method
T1 sequence (O60603 whole entry): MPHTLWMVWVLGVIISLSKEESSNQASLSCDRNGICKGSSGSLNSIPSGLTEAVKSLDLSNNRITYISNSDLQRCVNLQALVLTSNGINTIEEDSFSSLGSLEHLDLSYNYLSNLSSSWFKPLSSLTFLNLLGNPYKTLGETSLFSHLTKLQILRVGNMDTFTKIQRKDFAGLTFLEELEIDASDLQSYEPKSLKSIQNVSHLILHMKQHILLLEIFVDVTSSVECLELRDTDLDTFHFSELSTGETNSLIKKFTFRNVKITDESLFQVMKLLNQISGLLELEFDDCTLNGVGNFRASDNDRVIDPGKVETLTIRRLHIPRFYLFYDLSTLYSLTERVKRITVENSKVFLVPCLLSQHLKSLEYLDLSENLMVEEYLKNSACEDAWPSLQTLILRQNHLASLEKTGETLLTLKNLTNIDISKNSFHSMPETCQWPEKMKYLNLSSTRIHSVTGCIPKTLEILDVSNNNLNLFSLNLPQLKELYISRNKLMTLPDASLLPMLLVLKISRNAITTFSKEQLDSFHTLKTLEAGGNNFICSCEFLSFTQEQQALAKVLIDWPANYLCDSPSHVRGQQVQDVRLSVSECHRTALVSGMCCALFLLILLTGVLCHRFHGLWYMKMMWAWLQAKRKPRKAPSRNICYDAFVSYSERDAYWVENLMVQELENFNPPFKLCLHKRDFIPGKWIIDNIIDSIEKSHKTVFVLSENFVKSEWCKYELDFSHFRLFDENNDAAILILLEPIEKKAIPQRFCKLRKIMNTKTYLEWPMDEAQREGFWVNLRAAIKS

CD3-positive T cell = assay: Immunostimulatory activity in human CD3+ T cells at 0.1 to 10 uM incubated for 48 hrs by flow cytometry analysis; type: functional, cell-based; settings: dose 0.1-10 µM
Toll-like receptor 2 [3] = molecular target: T1, Toll-like receptor 2; assay: Agonist activity at TLR2 in HEK-Blue cells assessed as fold increase in activity 0.0015 to 10 uM incubated for 24 hrs by Quanti-Blue based SEAP assay; type: cell-based; settings: HEK-Blue hTLR2, dose 0.0015-10 µM
[4] = molecular target: Toll-like receptor 7 (Homo sapiens) (UniProt Q9NYK1); assay: Agonist activity at TLR7 in HEK-Blue hTLR7 cells at 0.1 to 100 uM incubated for 24 hrs by Quanti-Blue based SEAP assay; type: cell-based; settings: dose 0.1-100 µM
Toll-like receptor 7 (Homo sapiens), sequence (Q9NYK1 whole entry): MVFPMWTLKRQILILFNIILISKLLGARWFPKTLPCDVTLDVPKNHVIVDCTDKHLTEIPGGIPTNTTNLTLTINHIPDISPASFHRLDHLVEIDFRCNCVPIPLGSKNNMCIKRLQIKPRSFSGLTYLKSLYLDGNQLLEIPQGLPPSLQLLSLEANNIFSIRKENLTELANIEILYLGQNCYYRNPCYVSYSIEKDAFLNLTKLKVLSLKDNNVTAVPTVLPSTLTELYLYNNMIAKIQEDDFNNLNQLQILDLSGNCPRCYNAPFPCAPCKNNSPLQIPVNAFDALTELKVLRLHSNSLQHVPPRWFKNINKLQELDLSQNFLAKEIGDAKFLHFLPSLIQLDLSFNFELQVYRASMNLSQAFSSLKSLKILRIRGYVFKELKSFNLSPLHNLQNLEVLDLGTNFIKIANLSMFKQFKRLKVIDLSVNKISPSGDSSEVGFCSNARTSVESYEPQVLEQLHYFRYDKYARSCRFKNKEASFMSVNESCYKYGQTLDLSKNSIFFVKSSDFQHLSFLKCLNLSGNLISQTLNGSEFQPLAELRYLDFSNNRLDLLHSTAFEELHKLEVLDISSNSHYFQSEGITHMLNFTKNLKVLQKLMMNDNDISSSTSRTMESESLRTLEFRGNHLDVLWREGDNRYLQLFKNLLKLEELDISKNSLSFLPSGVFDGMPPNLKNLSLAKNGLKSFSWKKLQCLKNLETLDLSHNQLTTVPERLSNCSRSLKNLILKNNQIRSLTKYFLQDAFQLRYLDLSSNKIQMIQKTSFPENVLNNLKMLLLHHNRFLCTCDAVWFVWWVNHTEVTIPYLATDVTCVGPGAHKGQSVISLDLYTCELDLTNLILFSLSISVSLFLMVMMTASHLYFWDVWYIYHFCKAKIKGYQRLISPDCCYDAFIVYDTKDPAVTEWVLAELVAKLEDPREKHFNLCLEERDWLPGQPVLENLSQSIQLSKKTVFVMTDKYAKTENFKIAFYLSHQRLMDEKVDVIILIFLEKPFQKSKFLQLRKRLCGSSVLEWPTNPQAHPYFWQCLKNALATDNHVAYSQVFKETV

Macrophage = assay: Induction of IL-6 secretion in TLR2-/- C57BL/6 mouse peritoneal macrophages at 0.01 to 10 uM incubated for 24 hrs by ELISA method; type: functional, cell-based; settings: dose 0.01-10 µM
THP-1 [5] = assay: Upregulation of TLR6 expression in human THP-1 cells at 20 uM by immunoprecipitation method; type: functional, cell-based
MCF7 = assay: Induction of apoptosis in human MCF7 cells cocultured with PMA-differentiated THP-1 cells assessed as late apoptotic cells at 10 uM measured after 24 hrs by annexin V-FITC/PI staining based flow cytometry (reference value: 5.41 %); type: functional
[6] = molecular target: Toll-like receptor 3 (Homo sapiens) (UniProt O15455); assay: Agonist activity at TLR3 in HEK-Blue hTLR3 cells at 0.1 to 100 uM incubated for 24 hrs by Quanti-Blue based SEAP assay; type: cell-based; settings: dose 0.1-100 µM
Toll-like receptor 3 (Homo sapiens), sequence (O15455 whole entry): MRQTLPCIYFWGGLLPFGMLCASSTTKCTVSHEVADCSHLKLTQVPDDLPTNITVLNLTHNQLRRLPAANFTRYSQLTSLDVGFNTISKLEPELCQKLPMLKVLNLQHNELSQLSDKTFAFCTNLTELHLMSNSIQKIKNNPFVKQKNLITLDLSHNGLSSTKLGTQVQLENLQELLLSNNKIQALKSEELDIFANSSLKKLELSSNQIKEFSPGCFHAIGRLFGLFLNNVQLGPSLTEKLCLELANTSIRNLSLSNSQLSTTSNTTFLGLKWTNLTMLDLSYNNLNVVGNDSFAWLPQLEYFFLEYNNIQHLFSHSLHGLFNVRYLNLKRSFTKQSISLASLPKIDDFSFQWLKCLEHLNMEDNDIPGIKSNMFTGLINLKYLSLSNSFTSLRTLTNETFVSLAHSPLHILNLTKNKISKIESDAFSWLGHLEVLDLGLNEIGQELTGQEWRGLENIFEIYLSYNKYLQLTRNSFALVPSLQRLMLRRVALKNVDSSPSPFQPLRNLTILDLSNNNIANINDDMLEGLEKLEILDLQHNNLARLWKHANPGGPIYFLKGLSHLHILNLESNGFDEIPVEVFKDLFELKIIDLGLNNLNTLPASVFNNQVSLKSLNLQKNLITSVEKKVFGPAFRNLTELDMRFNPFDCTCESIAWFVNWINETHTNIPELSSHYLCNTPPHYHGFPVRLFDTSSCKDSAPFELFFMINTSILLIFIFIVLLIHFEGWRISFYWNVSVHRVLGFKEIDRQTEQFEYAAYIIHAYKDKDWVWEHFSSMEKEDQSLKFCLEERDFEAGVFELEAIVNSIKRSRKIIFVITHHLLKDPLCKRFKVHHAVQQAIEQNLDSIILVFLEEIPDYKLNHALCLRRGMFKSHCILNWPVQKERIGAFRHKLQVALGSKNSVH

[7] = molecular target: Toll-like receptor 6 (Homo sapiens) (UniProt Q9Y2C9); assay: Agonist activity at TLR6 in HEK-Blue hTLR2 cells at 0.2 uM incubated for 24 hrs in presence of anti-hTLR6-IgA antibodies measured by Quanti-Blue based SEAP assay; type: cell-based
Toll-like receptor 6 (Homo sapiens), sequence (Q9Y2C9 whole entry): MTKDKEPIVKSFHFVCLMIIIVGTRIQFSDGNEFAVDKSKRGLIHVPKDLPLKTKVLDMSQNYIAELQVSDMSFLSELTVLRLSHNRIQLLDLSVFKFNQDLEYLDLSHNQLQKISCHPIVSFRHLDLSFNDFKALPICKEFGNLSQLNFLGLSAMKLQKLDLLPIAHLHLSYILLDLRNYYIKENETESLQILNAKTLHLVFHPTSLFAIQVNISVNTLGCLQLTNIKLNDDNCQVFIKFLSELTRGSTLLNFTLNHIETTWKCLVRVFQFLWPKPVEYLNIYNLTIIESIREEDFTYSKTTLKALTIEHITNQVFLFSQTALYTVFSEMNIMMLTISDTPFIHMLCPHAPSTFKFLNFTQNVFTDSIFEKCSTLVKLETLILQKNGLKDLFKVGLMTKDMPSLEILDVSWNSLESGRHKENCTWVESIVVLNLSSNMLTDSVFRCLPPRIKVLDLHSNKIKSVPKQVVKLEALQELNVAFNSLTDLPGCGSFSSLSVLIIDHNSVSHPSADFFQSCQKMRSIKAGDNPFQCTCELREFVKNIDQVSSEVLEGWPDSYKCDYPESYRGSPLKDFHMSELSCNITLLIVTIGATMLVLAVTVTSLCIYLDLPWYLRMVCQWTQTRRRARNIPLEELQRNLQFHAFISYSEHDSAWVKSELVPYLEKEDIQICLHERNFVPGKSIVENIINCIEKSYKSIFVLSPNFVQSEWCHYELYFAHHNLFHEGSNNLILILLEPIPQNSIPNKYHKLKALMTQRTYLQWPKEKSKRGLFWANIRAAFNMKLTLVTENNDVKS

THP-1 [8] = assay: Agonist activity at TLR2/MyD88 in human THP-1 cells assessed as induction of TLR2/MyD88 complex formation at 20 uM incubated for 12 hrs by coimmunoprecipitation method; type: cell-based; settings: filed as agonist
THP-1 [9] = assay: Upregulation of TLR1 expression in human THP-1 cells at 20 uM by immunoprecipitation method; type: functional, cell-based
Monocyte = assay: Immunostimulatory activity in human monocytes assessed as fold increase at 0.1 to 10 uM incubated for 48 hrs by flow cytometry analysis; type: functional; settings: dose 0.1-10 µM
[10] = molecular target: Nuclear factor NF-kappa-B complex (Homo sapiens) (UniProt Q00653+P19838+Q04206); assay: Activation of NF-kappaB signalling in HEK-Blue hTLR2 cells at 10 uM in presence of triptolide; type: cell-based
THP-1 [11] = assay: Induction of IL-1beta secretion in human PMA-differentiated THP-1 cells incubated for 24 hrs by ELISA method; type: functional, cell-based; settings: dose 0.01-10 µM
PBMC = assay: Induction of IL-1beta secretion in human PBMC incubated for 24 hrs by ELISA method; type: functional, cell-based; settings: dose 0.01-10 µM
RAW264.7 = assay: Induction of nitric oxide release in mouse RAW264.7 cells at 0.01 to 10 uM incubated for 24 hrs by Griess reagent based assay; type: functional, cell-based; settings: dose 0.01-10 µM
THP-1 [12] = assay: Upregulation of MyD88 expression in human PMA-differentiated THP-1 cells in presence of T6167923 at 10 uM after 30 mins by western blot analysis; type: functional, cell-based
THP-1 [13] = assay: Upregulation of MyD88 expression in human PMA-differentiated THP-1 cells assessed as induction of IKKalpha phosphorylation at 10 uM incubated for 2 hrs by Western blot analysis; type: functional, cell-based
[14] = Cytotoxicity against HEK-Blue TLR2 cells upto 100 uM incubated for 24 hrs by CCK-8 assay; type: toxicity, cell-based; settings: human, hek-blue htlr2, 24 h
Toll-like receptor 2 [15] = molecular target: T1, Toll-like receptor 2; assay: Agonist activity at TLR2 in HEK-Blue hTLR2 cells at 0.2 uM incubated for 24 hrs in presence of anti-hTLR2-IgA antibodies measured by Quanti-Blue based SEAP assay; type: cell-based; settings: filed as agonist

Kd (Toll-like receptor 2 [2]): 0.053 µM | fold change (FC) (Toll-like receptor 2 [3]): 370 | Activity [4]: inactive | Activity [6]: inactive | Activity [7]: inactive | Activity [10]: inactive | Activity (Toll-like receptor 2 [15]): Active
SMILES: CC(C)OC(=O)c1c(NC(=S)Nc2ccc(F)c3ccccc23)sc2c1CCC2
Activity (HCT-116): 14.3% | CC50 at 24 h [1]: > 100 µM | Activity (CD3-positive T cell): Active | Activity (Macrophage): inactive | Activity (THP-1 [5]): inactive | Activity (MCF7): 25% | Activity (THP-1 [8]): Active | Activity (THP-1 [9]): Active | fold change (FC) (Monocyte): 2 | Activity (THP-1 [11]): Dose-Dependent Effect | Activity (PBMC): Dose-Dependent Effect | Activity (RAW264.7): inactive | Activity (THP-1 [12]): Active | Activity (THP-1 [13]): Active | Activity [14]: Non-Toxic

— ChEMBL document CHEMBL5038589, “Design, Synthesis, and Structure-Activity Relationship of N-Aryl-N'-(thiophen-2-yl)thiourea Derivatives as Novel and Specific Human TLR1/2 Agonists for Potential Cancer Immunotherapy” (J Med Chem, 2021)
